Source: patent US20190119348A1, “PARATHYROID HORMONE RECEPTOR 1 ANTAGONIST AND INVERSE AGONIST POLYPEPTIDES AND METHODS OF THEIR USE” (The General Hospital Corporation, priority 2016, published 2019)
Where a SMILES comes first, the peptide text is derived from it. [ ]: non-standard residue; d: D form. Nle = CCCC[C@H](N)C(=O)O

Target: T1, human PTHR1-H223R (Homo sapiens, UniProt Q03431, H223R)
T1 construct: expressed in transfected cells; host or cells: GHR-10 (HEK-293 stably expressing GloSensor and PTHR1-H223R)
T1 sequence (Q03431 27-593 H223R): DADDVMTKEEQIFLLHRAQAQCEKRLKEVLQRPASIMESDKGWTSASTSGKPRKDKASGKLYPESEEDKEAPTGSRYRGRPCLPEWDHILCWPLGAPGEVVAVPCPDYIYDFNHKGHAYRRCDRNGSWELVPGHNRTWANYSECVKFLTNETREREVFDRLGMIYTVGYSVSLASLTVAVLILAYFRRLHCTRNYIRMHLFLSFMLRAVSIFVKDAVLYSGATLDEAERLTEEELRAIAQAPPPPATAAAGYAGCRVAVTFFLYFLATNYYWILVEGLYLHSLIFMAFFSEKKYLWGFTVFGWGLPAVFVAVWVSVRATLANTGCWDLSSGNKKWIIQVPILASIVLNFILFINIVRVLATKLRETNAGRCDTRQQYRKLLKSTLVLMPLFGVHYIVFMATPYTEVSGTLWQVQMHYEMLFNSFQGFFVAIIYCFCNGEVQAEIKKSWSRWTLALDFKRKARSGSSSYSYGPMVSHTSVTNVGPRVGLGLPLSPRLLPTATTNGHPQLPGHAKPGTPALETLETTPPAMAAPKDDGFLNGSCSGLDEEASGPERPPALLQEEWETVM
Experiment: Inverse agonism on basal cAMP signaling in GHR-10 cells
Format: cell-based
Conditions: GHR-10 cells, from AUC, representative experiment; for Reduction of basal cAMP, % vehicle, After ligand washout: 26 minutes after washout of unbound ligand; for Reduction of basal cAMP, % vehicle, Ligand @ −6M: peptide 1×10^−6 M for 24 minutes
Description: cAMP signaling was assessed in the HEK293-derived or SaOS2-derived cell lines stably expressing the luciferase-based GloSensor™ cAMP reporter (Hattersley et al., Paper presented at: Novel Signaling Mechanisms and Bone Cell Biology 2014; Binkowski et al., Methods in molecular biology. 756:263-271). HEK-293 cells were further transfected to stably express the hPTHR1, hPTHR1-H223R, or hPTHR1-T410P. The cells were seeded into 96-well white plates and were assayed 24 to 48 hours post-confluency. Assays were performed at room temperature in CO2-independent culture media (Life Technologies, Corp., Carlsbad, Calif.) containing 0.1% BSA (CIDB). The cells were pre-loaded with luciferin (0.5 mM in CIDB) for 15 minutes, then PTH peptides were added at varying concentrations. cAMP-dependent luminescence was measured at two-minute intervals using a PerkinElmer Envision plate reader. The time at which maximum luminescence (cps) observed with agonist alone, typically at 10-20 minutes after agonist addition, was used to obtain data from wells containing antagonist with or without agonist, to thus generate antagonist ligand dose-response curves. The resulting cps values were then plotted against ligand concentration using GraphPad Prism 7.0 software and a four-parameter logistics curve fitting equation, which yielded parameters of inhibitory potency (pIC50).
These experiments were performed in HEK-293 cells stably transfected to express the GloSensor™ cAMP reporter along with a constitutively active mutant human PTHR1. The HEK-293 cells stably expressing GloSensor™ cAMP reporter along with a constitutively active mutant human PTHR1-H223R are GHR-10 cells. The HEK-293 cells stably expressing GloSensor™ cAMP reporter along with a constitutively active mutant human PTHR1-T410P are GTP-4 cells. The HEK-293 cells stably expressing GloSensor™ cAMP reporter along with a WT-PTHR1 are GP-2.3 cells. GP-2.3 cells were used as control. […] Effects on basal cAMP signaling over time were assessed during periods of direct ligand addition (FIGS. 15A-15F). The measurements were performed by recording GloSensor™ luminescence as counts per second (cps) using a PerkinElmer Envision plate reader. The data are illustrated in FIGS. 15A-15F. Data are from triplicate wells (means±SEM) of a single experiment representative of two others.
Persistence of the antagonist/inverse agonist effects (prolonged action) as follows. Effects of eight peptides on basal and PTH(1-34)-stimulated cAMP signaling by PTHR-H223R were assessed in GHR-10 cells (HEK-293-derived cells stably expressing glosensor cAMP reporter and PTHR1-H223R). Time courses of changes in cAMP levels were recorded in three consecutive phases:
1) after initial addition of a candidate antagonist/inverse agonist (1×10^−6 M-1×10^−9 M) to cells pre-loaded for […] with luciferin (left column);
2) after removal of unbound inverse agonist by extensive wash-out with buffer and replenishment with fresh luciferin-containing buffer (middle column); and
Control wells were treated with vehicle. GloSensor™ luminescence, as counts per second (cps), was recorded using a PerkinElmer Envision plate reader. Data are from duplicate wells (means±SEM) of a single experiment representative of two others. The results are illustrated in Table 7 and in FIGS. 16A-16C, 17A-17C, 18A-18C, 19A-19C, 20A-20C, 21A-21C, 22A-22C, and 23A-23C.
GHR10 cells were treated with vehicle or vehicle containing the indicated peptide for 24 minutes and cAMP-dependent luminescence was recorded at two-minute intervals. The cells were then washed to remove unbound ligand and media containing fresh luciferin was added, and cAMP luminescence was recorded for another 26 minutes. Percentage reduction was calculated from the area-under-the-curve (AUC) values derived from the time course plots using the equation: […]

SMILES	Reduction of basal cAMP, % vehicle, After ligand washout [% vehicle]	Reduction of basal cAMP, % vehicle, Ligand @ −6M [% vehicle]
CCCC[C@H](NC(=O)[C@@H](N)CC(C)C)C(=O)N[C@@H](Cc1c[nH]cn1)C(=O)N[C@@H](CCC(N)=O)C(=O)N[C@@H](CC(C)C)C(=O)N[C@H](Cc1c[nH]c2ccccc12)C(=O)N[C@@H](CCCCN)C(=O)N[C@@H](Cc1c[nH]c2ccccc12)C(=O)N[C@H](C(=O)N[C@@H](CCC(N)=O)C(=O)N[C@@H](CC(=O)O)C(=O)N[C@@H](C)C(=O)N[C@@H](CCCNC(=N)N)C(=O)N[C@@H](CCCNC(=N)N)C(=O)N[C@@H](CCCNC(=N)N)C(=O)N[C@@H](C)C(=O)N[C@@H](Cc1c[nH]c2ccccc12)C(=O)N[C@@H](CC(C)C)C(=O)N[C@@H](Cc1c[nH]cn1)C(=O)N[C@@H](CCCCN)C(=O)N[C@@H](CC(C)C)C(=O)N[C@H](C(=O)N[C@@H](C)C(=O)N[C@@H](CCC(=O)O)C(=O)N[C@H](C(=O)N[C@@H](Cc1c[nH]cn1)C(=O)N[C@H](C(=O)N[C@@H](C)C(=O)N[C@@H](CCC(=O)O)C(=O)N[C@H](C(N)=O)[C@@H](C)CC)[C@@H](C)O)[C@@H](C)CC)[C@@H](C)CC)[C@@H](C)CC [compound 1997, Nle8,L11, dW12, W23-LA-PTH(7-36)-1997] (H-L[Nle]HQL[dW]KWIQDARRRAWLHKLIAEIHTAEI-NH2; N-terminus assumed)	71	70
CCCC[C@H](NC(=O)[C@H](CC(C)C)NC(=O)[C@H](CCC(N)=O)NC(=O)[C@@H](N)[C@@H](C)CC)C(=O)N[C@@H](Cc1c[nH]cn1)C(=O)N[C@@H](CCC(N)=O)C(=O)N[C@@H](CC(C)C)C(=O)N[C@H](Cc1c[nH]c2ccccc12)C(=O)N[C@@H](CCCCN)C(=O)N[C@@H](Cc1c[nH]c2ccccc12)C(=O)N[C@H](C(=O)N[C@@H](CCC(N)=O)C(=O)N[C@@H](CC(=O)O)C(=O)N[C@@H](C)C(=O)N[C@@H](CCCNC(=N)N)C(=O)N[C@@H](CCCNC(=N)N)C(=O)N[C@@H](CCCNC(=N)N)C(=O)N[C@@H](C)C(=O)N[C@@H](Cc1c[nH]c2ccccc12)C(=O)N[C@@H](CC(C)C)C(=O)N[C@@H](Cc1c[nH]cn1)C(=O)N[C@@H](CCCCN)C(=O)N[C@@H](CC(C)C)C(=O)N[C@H](C(=O)N[C@@H](C)C(=O)N[C@@H](CCC(=O)O)C(=O)N[C@H](C(=O)N[C@@H](Cc1c[nH]cn1)C(=O)N[C@H](C(=O)N[C@@H](C)C(=O)N[C@@H](CCC(=O)O)C(=O)N[C@H](C(N)=O)[C@@H](C)CC)[C@@H](C)O)[C@@H](C)CC)[C@@H](C)CC)[C@@H](C)CC [compound 1999, Nle8, L11, dW12, W23-LA-PTH(5-36)-1999] (H-IQL[Nle]HQL[dW]KWIQDARRRAWLHKLIAEIHTAEI-NH2; N-terminus assumed)	62	63
CC[C@H](C)[C@H](NC(=O)[C@H](CCC(=O)O)NC(=O)[C@H](C)NC(=O)[C@@H](NC(=O)[C@H](Cc1c[nH]cn1)NC(=O)[C@@H](NC(=O)[C@H](CCC(=O)O)NC(=O)[C@H](C)NC(=O)[C@@H](NC(=O)[C@H](CC(C)C)NC(=O)[C@H](CCCCN)NC(=O)[C@H](Cc1c[nH]cn1)NC(=O)[C@H](CC(C)C)NC(=O)[C@H](Cc1c[nH]c2ccccc12)NC(=O)[C@H](C)NC(=O)[C@H](CCCNC(=N)N)NC(=O)[C@H](CCCNC(=N)N)NC(=O)[C@H](CCCNC(=N)N)NC(=O)[C@H](C)NC(=O)[C@H](CC(=O)O)NC(=O)[C@H](CCC(N)=O)NC(=O)[C@@H](NC(=O)[C@H](Cc1c[nH]c2ccccc12)NC(=O)[C@H](CCCCN)NC(=O)[C@@H](Cc1c[nH]c2ccccc12)NC(=O)[C@H](CC(C)C)NC(=O)[C@H](CCC(N)=O)NC(=O)[C@H](Cc1c[nH]cn1)NC(=O)[C@H](CCSC)NC(=O)[C@@H](N)CC(C)C)[C@@H](C)CC)[C@@H](C)CC)[C@@H](C)CC)[C@@H](C)O)C(N)=O [compound 2001, L11, dW12, W23-LA-PTH(7-36)-2001] (H-LMHQL[dW]KWIQDARRRAWLHKLIAEIHTAEI-NH2; N-terminus assumed)	65	66
CC[C@H](C)[C@H](N)C(=O)N[C@@H](CCC(N)=O)C(=O)N[C@@H](CC(C)C)C(=O)N[C@@H](CCSC)C(=O)N[C@@H](Cc1c[nH]cn1)C(=O)N[C@@H](CCC(N)=O)C(=O)N[C@@H](CC(C)C)C(=O)N[C@H](Cc1c[nH]c2ccccc12)C(=O)N[C@@H](CCCCN)C(=O)N[C@@H](Cc1c[nH]c2ccccc12)C(=O)N[C@H](C(=O)N[C@@H](CCC(N)=O)C(=O)N[C@@H](CC(=O)O)C(=O)N[C@@H](C)C(=O)N[C@@H](CCCNC(=N)N)C(=O)N[C@@H](CCCNC(=N)N)C(=O)N[C@@H](CCCNC(=N)N)C(=O)N[C@@H](C)C(=O)N[C@@H](Cc1c[nH]c2ccccc12)C(=O)N[C@@H](CC(C)C)C(=O)N[C@@H](Cc1c[nH]cn1)C(=O)N[C@@H](CCCCN)C(=O)N[C@@H](CC(C)C)C(=O)N[C@H](C(=O)N[C@@H](C)C(=O)N[C@@H](CCC(=O)O)C(=O)N[C@H](C(=O)N[C@@H](Cc1c[nH]cn1)C(=O)N[C@H](C(=O)N[C@@H](C)C(=O)N[C@@H](CCC(=O)O)C(=O)N[C@H](C(N)=O)[C@@H](C)CC)[C@@H](C)O)[C@@H](C)CC)[C@@H](C)CC)[C@@H](C)CC [compound 2003, L11, dW12, W23-LA-PTH(5-36)-2003] (H-IQLMHQL[dW]KWIQDARRRAWLHKLIAEIHTAEI-NH2; N-terminus assumed)	64	66
